# Data as given in patent publication US20010055590A1, “Method for enhancing myoblast migration and invasion in the context of gene therapy” (priority 1999, published 2001).
# What was measured:
# Type in all cases: cell-based
# human myoblasts = assay: In vitro human myoblast invasion of Matrigel; settings: 24 hour time point
# Method: Mouse myoblasts were previously isolated from hind limb muscles of 4-6 week old severe combined immunodeficient (SCID) mice and clonally purified from contaminating fibroblasts (Yao et al. “Primary myoblast-mediated gene: transfer: persistent expression of human factor IX in mice” Gene Therapy 1:99-107, 1994). Myoblasts (approximately 1×10^6 cells) were plated on 6 cm tissue culture plates coated with 0.5% gelatin (Sigma, St. Louis, Mo.) and grown in growth medium consisting of Dulbecco's Modified Eagle Medium (DMEM) (Gibco BRL, Gaithersburg Md.) supplemented with 20% fetal bovine serum (FBS; Gibco) and 0.5% chick embryo extract (CEE; Gibco). All animal studies were carried out following the institutional guidelines for ethical animal use. Human myoblasts were isolated using trypsin digestion from abdominal wall or chest wall muscle biopsies, and surgery. […] Myoblast migration and invasion were examined using a commercially available in vitro cell migration and invasion assay kit (Biocoat, Becton Dickinson, Franklin Lakes, N.J.) as described by Albini et al. (A rapid in vitro assay for quantitating the invasive potential of tumor cells Cancer Res 47:3239-3245, 1987). […] The number of cells per field was counted in 10 randomly selected fields and averaged for each condition. […]
# mouse myoblasts [1] = assay: Migration of mouse myoblasts transiently over-expressing MMPs; settings: NAC treatment, n=4
# Method: (§1) Myoblast migration and invasion were examined using a commercially available in vitro cell migration and invasion assay kit (Biocoat, Becton Dickinson, Franklin Lakes, N.J.) as described by Albini et al. (A rapid in vitro assay for quantitating the invasive potential of tumor cells Cancer Res 47:3239-3245, 1987). Myoblasts were grown to approximately 70% confluence, rinsed three times in serum-free DMEM, followed by incubation for 3 hours in 0.2% bovine serum albumin (BSA) in DMEM to eliminate the effects of serum. Cells were then trypsinized and collected by centrifugation. Cells were resuspended in serum-free DMEM at a density of 1×10^5 cells/ml, and 0.5 ml aliquots of cell suspension were added to the top chamber. […] Fibronectin subfragments of 45 KDa (Sigma), 120 kDa (Gibco), 63 kDa (Retronectin, Takara) and 70 KDa (Sigma) were used alone or in combination. The growth factor concentrations used were those which could produce maximal effects as examined in the present studies by extending from values reported by Bischoff (“Chemotaxis of skeletal muscle satellite cells” Devel. Dynamics 208:505-515, 1997). […] The number of cells per field was counted in 10 randomly selected fields and averaged for each condition. […]
# mouse myoblasts [2] = assay: Invasion of mouse myoblasts transiently over-expressing MMPs; settings: NAC treatment, n=4
# Method: as §1
# [3] = MMP-1 over-expressing myoblasts
# [4] = MMP-2 over-expressing myoblasts
Molecule,stimulation of human myoblast invasion of Matrigel over the BSA control (human myoblasts),migration capability relative to non-NAC treated cells (mouse myoblasts [1]; [3]),migration capability relative to non-NAC treated cells (mouse myoblasts [1]; [4]),invasion relative to non-treated cells (mouse myoblasts [2]; [3]),invasion relative to non-treated cells (mouse myoblasts [2]; [4])
human serum fibronectin,2.3 fold,–,–,–,–
"CC(=O)N[C@@H](CS)C(=O)O [NAC, N-acetyl cysteine, reference compound]",–,35%,22%,40%,28%
